{
  "source": "ChEMBL document CHEMBL4196011",
  "about": "“The lead optimization of the polyamine conjugate of flavonoid with a naphthalene motif: Synthesis and biological evaluation” (Eur J Med Chem, 2018)",
  "key": {"Mus musculus [1]": {"tested_on": "Mus musculus", "assay": "Toxicity in Kunming mouse xenografted with […] H22 cells assessed as effect on spleen weight index at 30 mg/kg, iv administered for 7 consecutive days", "type": "organism-based", "conditions": "in vivo"}, "HepG2 [2]": {"tested_on": "HepG2", "assay": "Cytotoxicity in human HepG2 cells assessed as gain in lysosomal mass/pH after 48 hrs by LysoTracker Red dye-based fluorescence assay", "type": "functional, cell-based"}, "HepG2 [3]": {"tested_on": "HepG2", "assay": "Induction of apoptosis in human HepG2 cells assessed as disruption of mitochondrial membrane potential after 48 hrs by Rh123 staining-based fluorescence quenching analysis", "type": "functional, cell-based"}, "Mus musculus [4]": {"tested_on": "Mus musculus", "assay": "Toxicity in Kunming mouse xenografted with […] H22 cells assessed as effect on body weight at 30 mg/kg, iv administered for 7 consecutive days", "type": "organism-based", "conditions": "in vivo"}, "Mus musculus [5]": {"tested_on": "Mus musculus", "assay": "Toxicity in Kunming mouse xenografted with […] H22 cells assessed as effect on heart weight index at 30 mg/kg, iv administered for 7 consecutive days", "type": "organism-based", "conditions": "in vivo"}, "Mus musculus [6]": {"tested_on": "Mus musculus", "assay": "Toxicity in Kunming mouse xenografted with […] H22 cells assessed as effect on liver weight index at 30 mg/kg, iv administered for 7 consecutive days", "type": "organism-based", "conditions": "in vivo"}, "[7]": {"assay": "Drug localization in mitochondria of human HepG2 cells at 7.5 uM after 8 hrs by MitoTracker Green dye-based confocal fluorescence microscopic analysis", "type": "ADME", "conditions": "hepg2, 8 h"}, "[8]": {"assay": "Drug localization in endoplasmic reticulum of human HepG2 cells at 7.5 uM after 8 hrs by ER-Tracker Red dye-based confocal fluorescence microscopic analysis", "type": "ADME, subcellular", "conditions": "hepg2, 8 h"}, "[9]": {"assay": "Drug localization in golgi apparatus of human HepG2 cells at 7.5 uM after 8 hrs by Golgi-Tracker Red dye-based confocal fluorescence microscopic analysis", "type": "ADME, subcellular", "conditions": "hepg2, 8 h"}, "[10]": {"assay": "Drug localization in lysosomes of human HepG2 cells at 7.5 uM after 8 hrs by LysoTracker Red dye-based confocal fluorescence microscopic analysis", "type": "ADME, subcellular, Lysosome", "conditions": "hepg2, 8 h"}, "[11]": {"assay": "Drug localization in nucleus of human HepG2 cells at 7.5 uM after 8 hrs by Hoechst 33342 staining-based HCS analysis", "type": "ADME, subcellular", "conditions": "hepg2, 8 h"}, "HepG2 [12]": {"tested_on": "HepG2", "assay": "Induction of apoptosis in human HepG2 cells assessed as early apoptotic cells at 2.5 uM after 8 hrs by Annexin V-FITC/propidium iodide staining-based flow cytometry (reference value: 1.29%)", "type": "functional"}, "HepG2 [13]": {"tested_on": "HepG2", "assay": "Induction of apoptosis in human HepG2 cells assessed as late apoptotic cells at 2.5 uM after 8 hrs by Annexin V-FITC/propidium iodide staining-based flow cytometry (reference value: 0.88%)", "type": "functional"}, "HepG2 [14]": {"tested_on": "HepG2", "assay": "Induction of apoptosis in human HepG2 cells assessed as necrotic cells at 2.5 uM after 8 hrs by Annexin V-FITC/propidium iodide staining-based flow cytometry (reference value: 0.40%)", "type": "functional"}, "HepG2 [15]": {"tested_on": "HepG2", "assay": "Induction of apoptosis in human HepG2 cells assessed as late apoptotic cells at 7.5 uM after 8 hrs by Annexin V-FITC/propidium iodide staining-based flow cytometry (reference value: 0.88%)", "type": "functional"}, "HepG2 [16]": {"tested_on": "HepG2", "assay": "Induction of apoptosis in human HepG2 cells assessed as early apoptotic cells at 5 uM after 8 hrs by Annexin V-FITC/propidium iodide staining-based flow cytometry (reference value: 1.29%)", "type": "functional"}, "HepG2 [17]": {"tested_on": "HepG2", "assay": "Induction of apoptosis in human HepG2 cells assessed as late apoptotic cells at 5 uM after 8 hrs by Annexin V-FITC/propidium iodide staining-based flow cytometry (reference value: 0.88%)", "type": "functional"}, "HepG2 [18]": {"tested_on": "HepG2", "assay": "Induction of apoptosis in human HepG2 cells assessed as necrotic cells at 5 uM after 8 hrs by Annexin V-FITC/propidium iodide staining-based flow cytometry (reference value: 0.40%)", "type": "functional"}, "HepG2 [19]": {"tested_on": "HepG2", "assay": "Induction of apoptosis in human HepG2 cells assessed as viable cells at 5 uM after 8 hrs by Annexin V-FITC/propidium iodide staining-based flow cytometry (reference value: 97.43%)", "type": "functional", "conditions": "HepG2, 8 h, read-out: Activity"}, "HepG2 [20]": {"tested_on": "HepG2", "assay": "Induction of apoptosis in human HepG2 cells assessed as late apoptotic cells at 2.5 uM after 24 hrs by Annexin V-FITC/propidium iodide staining-based flow cytometry (reference value: 0.88%)", "type": "functional"}, "HepG2 [21]": {"tested_on": "HepG2", "assay": "Induction of apoptosis in human HepG2 cells assessed as necrotic cells at 2.5 uM after 24 hrs by Annexin V-FITC/propidium iodide staining-based flow cytometry (reference value: 0.12%)", "type": "functional"}, "HepG2 [22]": {"tested_on": "HepG2", "assay": "Induction of apoptosis in human HepG2 cells assessed as early apoptotic cells at 7.5 uM after 24 hrs by Annexin V-FITC/propidium iodide staining-based flow cytometry (reference value: 2.07%)", "type": "functional"}, "HepG2 [23]": {"tested_on": "HepG2", "assay": "Induction of apoptosis in human HepG2 cells assessed as late apoptotic cells at 7.5 uM after 24 hrs by Annexin V-FITC/propidium iodide staining-based flow cytometry (reference value: 0.88%)", "type": "functional"}, "HepG2 [24]": {"tested_on": "HepG2", "assay": "Induction of apoptosis in human HepG2 cells assessed as late apoptotic cells at 2.5 uM after 36 hrs by Annexin V-FITC/propidium iodide staining-based flow cytometry (reference value: 1.08%)", "type": "functional"}, "HepG2 [25]": {"tested_on": "HepG2", "assay": "Induction of apoptosis in human HepG2 cells assessed as necrotic cells at 2.5 uM after 36 hrs by Annexin V-FITC/propidium iodide staining-based flow cytometry (reference value: 0.24%)", "type": "functional"}, "HepG2 [26]": {"tested_on": "HepG2", "assay": "Induction of apoptosis in human HepG2 cells assessed as viable cells at 2.5 uM after 36 hrs by Annexin V-FITC/propidium iodide staining-based flow cytometry (reference value: 96.6%)", "type": "functional", "conditions": "HepG2, 36 h, read-out: Activity"}, "HepG2 [27]": {"tested_on": "HepG2", "assay": "Induction of apoptosis in human HepG2 cells assessed as necrotic cells at 7.5 uM after 36 hrs by Annexin V-FITC/propidium iodide staining-based flow cytometry (reference value: 0.24%)", "type": "functional"}, "HepG2 [28]": {"tested_on": "HepG2", "assay": "Induction of apoptosis in human HepG2 cells assessed as necrotic cells at 2.5 uM after 48 hrs by Annexin V-FITC/propidium iodide staining-based flow cytometry (reference value: 0.08%)", "type": "functional"}, "HepG2 [29]": {"tested_on": "HepG2", "assay": "Induction of apoptosis in human HepG2 cells assessed as early apoptotic cells at 7.5 uM after 48 hrs by Annexin V-FITC/propidium iodide staining-based flow cytometry (reference value: 1.30%)", "type": "functional"}, "HepG2 [30]": {"tested_on": "HepG2", "assay": "Induction of apoptosis in human HepG2 cells assessed as late apoptotic cells at 7.5 uM after 48 hrs by Annexin V-FITC/propidium iodide staining-based flow cytometry (reference value: 0.95%)", "type": "functional"}, "HepG2 [31]": {"tested_on": "HepG2", "assay": "Induction of apoptosis in human HepG2 cells assessed as necrotic cells at 7.5 uM after 48 hrs by Annexin V-FITC/propidium iodide staining-based flow cytometry (reference value: 0.08%)", "type": "functional"}, "HepG2 [32]": {"tested_on": "HepG2", "assay": "Induction of apoptosis in human HepG2 cells assessed as viable cells at 5 uM after 48 hrs by Annexin V-FITC/propidium iodide staining-based flow cytometry (reference value: 96.67%)", "type": "functional", "conditions": "HepG2, 48 h, read-out: Activity"}, "HepG2 [33]": {"tested_on": "HepG2", "assay": "Induction of apoptosis in human HepG2 cells assessed as caspase 3 activation after 48 hrs by immunofluorescence staining-based high content screening assay", "type": "functional, cell-based"}, "HepG2 [34]": {"tested_on": "HepG2", "assay": "Induction of apoptosis in human HepG2 cells at 5 uM preincubated cells with autophagy inhibitor 3-MA for 2 hrs followed by compound addition measured after 48 hrs by Annexin V-FITC/propidium iodide staining-based flow cytometry relative to control", "type": "functional", "design": "scale not given: the % may be the effect or the level left"}, "HepG2 [35]": {"tested_on": "HepG2", "assay": "Induction of autophagy in human HepG2 cells assessed as increase in LC3-2 expression at 5 uM by Western blot analysis", "type": "functional, cell-based"}, "HepG2 [36]": {"tested_on": "HepG2", "assay": "Induction of autophagy in human HepG2 cells assessed as formation of autolysosomes after 48 hrs by MDC staining-based assay", "type": "functional, cell-based"}},
  "note": "Active and inactive are the calls of the source. No cut-off for these calls is given here.",
  "data": [
    {"smiles": "COc1ccc2cc(-c3oc4c(CNCCCCN)cccc4c(=O)c3OC)ccc2c1Br.Cl.Cl", "values": [
      {"measurement": "Activity", "setting": "Mus musculus [1]", "value": "Non-Toxic"},
      {"measurement": "Activity", "setting": "HepG2 [2]", "value": "Dose-dependent effect"},
      {"measurement": "Activity", "setting": "HepG2 [3]", "value": "Dose-dependent effect"},
      {"measurement": "Activity", "setting": "Mus musculus [4]", "value": "Non-Toxic"},
      {"measurement": "Activity", "setting": "Mus musculus [5]", "value": "Non-Toxic"},
      {"measurement": "Activity", "setting": "Mus musculus [6]", "value": "Non-Toxic"},
      {"measurement": "Drug uptake", "setting": "[7]", "value": "Active"},
      {"measurement": "Drug uptake", "setting": "[8]", "value": "Active"},
      {"measurement": "Drug uptake", "setting": "[9]", "value": "Not Active"},
      {"measurement": "Drug uptake", "setting": "[10]", "value": "Not Active"},
      {"measurement": "Drug uptake", "setting": "[11]", "value": "Not Active"},
      {"measurement": "Activity", "setting": "HepG2 [12]", "value": 2.06, "unit": "%"},
      {"measurement": "Activity", "setting": "HepG2 [13]", "value": 1.52, "unit": "%"},
      {"measurement": "Activity", "setting": "HepG2 [14]", "value": 0.3, "unit": "%"},
      {"measurement": "Activity", "setting": "HepG2 [15]", "value": 3.38, "unit": "%"},
      {"measurement": "Activity", "setting": "HepG2 [16]", "value": 5.06, "unit": "%"},
      {"measurement": "Activity", "setting": "HepG2 [17]", "value": 1.91, "unit": "%"},
      {"measurement": "Activity", "setting": "HepG2 [18]", "value": 0.03, "unit": "%"},
      {"measurement": "viability at 5 µM", "setting": "HepG2 [19]", "value": 93, "unit": "%"},
      {"measurement": "Activity", "setting": "HepG2 [20]", "value": 0.88, "unit": "%"},
      {"measurement": "Activity", "setting": "HepG2 [21]", "value": 0, "unit": "%"},
      {"measurement": "Activity", "setting": "HepG2 [22]", "value": 18.85, "unit": "%"},
      {"measurement": "Activity", "setting": "HepG2 [23]", "value": 9.48, "unit": "%"},
      {"measurement": "Activity", "setting": "HepG2 [24]", "value": 5.89, "unit": "%"},
      {"measurement": "Activity", "setting": "HepG2 [25]", "value": 3.9, "unit": "%"},
      {"measurement": "viability at 2.5 µM", "setting": "HepG2 [26]", "value": 84, "unit": "%"},
      {"measurement": "Activity", "setting": "HepG2 [27]", "value": 0.26, "unit": "%"},
      {"measurement": "Activity", "setting": "HepG2 [28]", "value": 0.29, "unit": "%"},
      {"measurement": "Activity", "setting": "HepG2 [29]", "value": 23.02, "unit": "%"},
      {"measurement": "Activity", "setting": "HepG2 [30]", "value": 31.22, "unit": "%"},
      {"measurement": "Activity", "setting": "HepG2 [31]", "value": 0.17, "unit": "%"},
      {"measurement": "viability at 5 µM", "setting": "HepG2 [32]", "value": 60.4, "unit": "%"},
      {"measurement": "Activity", "setting": "HepG2 [33]", "value": "Dose-dependent effect"},
      {"measurement": "Activity", "setting": "HepG2 [34]", "value": 53.07, "unit": "%"},
      {"measurement": "Activity", "setting": "HepG2 [35]", "value": "Active"},
      {"measurement": "Activity", "setting": "HepG2 [36]", "value": "Dose-dependent effect"}
    ]}
  ]
}
